Assay results: patent US9085561B2, “Cyclic urea- or lactam-substituted quinoxaline-type piperidines as ORL-1 modulators” (priority 2012, dated 2015)
Marks after values point to notes of the source that are not given here.

Assays:
[1] = test system: mechanical hyperalgesia in rats subjected to partial sciatic nerve ligation; experiment: Seltzer model (partial sciatic nerve ligation) of neuropathic pain, paw pressure assay (PWT); format: in vivo, rat; settings: for % Reversal [mean]: rat Seltzer model, oral 10 mg/kg; for maximum analgesic efficacy of pregabalin (10 mg/kg) as fraction of % reversal of Compound B9a: 3 hours after day 1 administration
[2] = biological target: human CYP2D6 (Homo sapiens, UniProt P10635); experiment: Cytochrome P450 2D6 inhibition (dextromethorphan O-demethylation, pooled human hepatic microsome)
Sequence of human CYP2D6 (P10635 whole entry): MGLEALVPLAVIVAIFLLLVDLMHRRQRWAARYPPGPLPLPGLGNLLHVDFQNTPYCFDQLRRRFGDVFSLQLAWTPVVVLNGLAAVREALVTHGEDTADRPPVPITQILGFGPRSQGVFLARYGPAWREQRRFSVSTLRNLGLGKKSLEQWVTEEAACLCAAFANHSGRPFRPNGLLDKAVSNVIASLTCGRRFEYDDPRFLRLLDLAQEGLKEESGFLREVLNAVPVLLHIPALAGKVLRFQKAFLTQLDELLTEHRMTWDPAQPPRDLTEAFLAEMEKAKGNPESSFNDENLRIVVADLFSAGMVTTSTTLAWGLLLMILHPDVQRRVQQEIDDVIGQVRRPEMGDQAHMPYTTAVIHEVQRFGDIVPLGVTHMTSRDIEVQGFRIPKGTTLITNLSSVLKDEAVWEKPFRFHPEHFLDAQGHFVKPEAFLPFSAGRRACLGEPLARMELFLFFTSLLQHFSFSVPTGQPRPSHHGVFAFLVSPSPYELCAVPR

| Structure (SMILES) | IC50 [2] | further results |
| --- | --- | --- |
| CC(C)C[C@H](CN)CC(=O)O [Pregabalin, pregabalin, reference compound] | – | % Reversal [mean] ([1]; positive control column, 3 h after administration (day 1), 10 mg/kg): 28.0** %; % Reversal [mean] ([1]; positive control column, 3 h after administration (day 1), listed as pregabalin, 10 mg/kg): 28.0%; % Reversal [mean] ([1]; positive control, 1 h after administration (day 1)): 17.0%; % Reversal [mean] ([1]; positive control, 5 h after administration (day 1)): 15.0%; % Reversal [mean] ([1]; positive control, pre-administration): 0%; maximum analgesic efficacy of pregabalin (10 mg/kg) as fraction of % reversal of Compound B9a ([1]; versus B9a 1 mg/kg): about 0.76; maximum analgesic efficacy of pregabalin (10 mg/kg) as fraction of % reversal of Compound B9a ([1]; versus B9a 3 mg/kg): about 0.61; maximum analgesic efficacy of pregabalin (10 mg/kg) as fraction of % reversal of Compound B9a ([1]; versus B9a 10 mg/kg): about 0.46 |
| O=C(O)c1cc(-c2nc3ccccc3n([C@H]3C[C@H]4CCC[C@@H](C3)N4[C@@H]3C[C@@H]4CCCC[C@@H](C4)C3)c2=O)c[nH]c1=O [Compound U043, 5-(4-((1R,3R,5S)-9-((1R,6S,8s)-bicyclo[4.3.1]decan-8-yl)-9-azabicyclo[3.3.1]nonan-3-yl)-3-oxo-3,4-dihydroquinoxalin-2-yl)-2-oxo-1,2-dihydropyridine-3-carboxylic acid] | > 20 µM | – |
| O=c1[nH]c(=O)n(-c2nc3ccccc3n([C@H]3C[C@H]4CCC[C@@H](C3)N4[C@H]3C[C@@H]4CCC[C@@H](C4)C3)c2=O)cc1Br [Compound B16a, 1-(4-((1R,1′R,3r,3R,5S,5′S)-[3,9′-bi(9′-azabicyclo[3.3.1]nonan)]-3′-yl)-3-oxo-3,4-dihydroquinoxalin-2-yl)-5-bromopyrimidine-2,4(1H,3H)-dione] | > 20 µM | – |
| O=c1c(N2CCNCC2)nc2ccccc2n1C1CCN(C2CCCCCCC2)CC1 [CC10, reference compound] | < 1 µM | – |
| C[C@@H]1C[C@@H]2C[C@H](C1)C[C@@H](N1[C@@H]3CCC[C@H]1C[C@@H](n1c(=O)c(-c4c[nH]c(=O)c(C(=O)O)c4)nc4ccccc41)C3)C2 [Compound U064, 5-(4-((1R,1′R,3r,3′R,5S,5′S,7S)-7-methyl-[3,9′-bi(9′-azabicyclo[3.3.1]nonan)]-3′-yl)-3-oxo-3,4-dihydroquinoxalin-2-yl)-2-oxo-1,2-dihydropyridine-3-carboxylic acid] | > 20 µM | – |
| O=C(O)Cn1cc(-c2nc3ccccc3n([C@H]3C[C@H]4CCC[C@@H](C3)N4[C@H]3C[C@@H]4CCC[C@@H](C4)C3)c2=O)ccc1=O [Compound U007, 2-(5-(4-((1R,1′R,3r,3′R,5S,5′S)-[3,9′-bi(9′-azabicyclo[3.3.1]nonan)]-3′-yl)-3-oxo-3,4-dihydroquinoxalin-2-yl)-2-oxopyridin-1(2H)-yl)acetic acid] | > 20 µM | – |
| O=C(O)Cn1c(-c2nc3ccccc3n([C@H]3C[C@H]4CC[C@@H](C3)N4[C@@H]3C[C@@H]4CCCC[C@@H](C4)C3)c2=O)cccc1=O [DD1b(iii), 2-(6-(4-((1R,3R,5S)-8-((1R,6S,8s)-bicyclo[4.3.1]decan-8-yl)-8-azabicyclo[3.2.1]octan-3-yl)-3-oxo-3,4-dihydroquinoxalin-2-yl)-2-oxopyridin-1(2H)-yl)acetic acid] | > 20 µM | – |
| CC1(C)[C@H]2CC[C@@H](CCN3[C@@H]4CCC[C@H]3C[C@@H](n3c(=O)c(-c5ccc[nH]c5=O)nc5ccccc53)C4)[C@@H]1C2 [U55a(i), 1-((1R,3S,5S)-9-(2-((1S,2S,5S)-6,6-dimethylbicyclo[3.1.1]heptan-2-yl)ethyl)-9-azabicyclo[3.3.1]nonan-3-yl)-3-(2-oxo-1,2-dihydropyridin-3-yl)quinoxalin-2(1H)-one] | > 20 µM | – |
| C[C@@H]1C[C@@H]2C[C@H](C1)C[C@@H](N1[C@@H]3CCC[C@H]1C[C@@H](n1c(=O)c(N4C(=O)NC(C)(C)C4=O)nc4ccccc41)C3)C2 [Compound B47a] | > 20 µM | – |
| C[C@@H]1C[C@@H]2C[C@H](C1)C[C@@H](N1[C@@H]3CCC[C@H]1C[C@@H](n1c(=O)c(-n4ncc(=O)[nH]c4=O)nc4ccccc41)C3)C2 [Compound B34a, 2-(4-((1R,1′R,3r,3′R,5S,5′S,7S)-7-methyl-[3,9′-bi(9′-azabicyclo[3.3.1]nonan)]-3′-yl)-3-oxo-3,4-dihydroquinoxalin-2-yl)-1,2,4-triazine-3,5(2H,4H)-dione] | > 20 µM | – |
| C[C@@H]1C[C@@H]2C[C@H](C1)C[C@@H](N1[C@@H]3CCC[C@H]1C[C@@H](n1c(=O)c(-c4c[nH]c(=O)c(C(N)=O)c4)nc4ccccc41)C3)C2 [Compound U063, 5-(4-((1R,1′R,3r,3′R,5S,5′S,7S)-7-methyl-[3,9′-bi(9′-azabicyclo[3.3.1]nonan)]-3′-yl)-3-oxo-3,4-dihydroquinoxalin-2-yl)-2-oxo-1,2-dihydropyridine-3-carboxamide] | 7.2 µM | – |
| O=C1CN(c2nc3ccccc3n(C3CCN(C4CCCCCCC4)CC3)c2=O)CCN1 [CC18, reference compound] | < 1 µM | – |
| O=c1cncc(-c2nc3ccccc3n([C@H]3C[C@H]4CCC[C@@H](C3)N4[C@H]3C[C@@H]4CCC[C@@H](C4)C3)c2=O)[nH]1 [R3a(i), 1-((1R,1′R,3r,3′R,5S,5′S)-[3,9′-bi(9′-azabicyclo[3.3.1]nonan)]-3′-yl)-3-(6-oxo-1,6-dihydropyrazin-2-yl)quinoxalin-2(1H)-one] | > 20 µM | – |
| C[C@@H]1C[C@@H]2C[C@H](C1)C[C@@H](N1[C@@H]3CCC[C@H]1C[C@@H](n1c(=O)c(-c4c[nH]c(=O)cn4)nc4ccccc41)C3)C2 [Compound U052, 1-((1R,1′R,3r,3′R,5S,5′S,7S)-7-methyl-[3,9′-bi(9′-azabicyclo[3.3.1]nonan)]-3′-yl)-3-(5-oxo-4,5-dihydropyrazin-2-yl)quinoxalin-2(1H)-one] | > 20 µM | – |
| NC1CCN(c2nc3ccccc3n(C3CCN(C4CCCCCCC4)CC3)c2=O)CC1 [CC22, reference compound] | 1 µM | – |
